Tests used:
[1] = Sensory panel evaluation of tomato soups with reduced salt (Example 9)
Description: 10 gram of each composition was mixed with 100 ml hot water to obtain tomato soups. The different soups were tasted and evaluated by a sensory panel.

[2] = Professional panel tasting of 0% fat strawberry yoghurt (Example 4)
Description: Four yoghurt samples were prepared: • A: Yoghurt 0% fat+strawberry flavour+sucralose (25%) 300 ppm • B: Yoghurt 0% fat+strawberry flavour+sucralose (25%) 300 ppm+10 ppm N-gluconyl ethanolamme (as prepared in Example 2) • C: Yoghurt 0% fat+strawberry flavour+4% sugar • D: Yoghurt 0% fat+strawberry flavour+4% sugar+10 ppm N-gluconyl ethanolamine (as prepared in Example 2)
(§1) The yoghurts were tasted by a professional panel.

[3] = Professional panel tasting of 3% fat strawberry yoghurt (Example 5); details: sample B: Yoghurt 3% fat+strawberry flavour+4% sugar+10 ppm; reference A without: tart, acidic
Description: Two yoghurt samples were prepared: • A: Yoghurt 3% fat+strawberry flavour+4% sugar • B: Yoghurt 3% fat+strawberry flavour+4% sugar+10 ppm N-gluconyl ethanolamine (as prepared in Example 2)
as §1

[4] = Professional panel tasting of strawberry ice cream, 8% vegetable fat (Example 6); details: sample B: Ice cream (8% vegetable fat)+strawberry flavour+10 ppm, reference A without: sweet, creamy aftertaste
Description: Two ice cream (8% vegetable fat) samples were prepared: • A: Ice cream+strawberry flavour • B: Ice cream+strawberry flavour+10 ppm N-gluconyl ethanolamine (as prepared in Example 2)
The ice creams were tasted by a professional panel. There was general agreement among the group on the taste descriptions: • A: sweet, strawberry, creamy aftertaste.

[5] = Professional panel tasting of still lemon beverages (Example 7); details: sample C: tap water with sucrose (6.2 brix)+lemon flavour+30 ppm; B (6.2 brix, without): empty, less sweet; A (7 brix): sweet
Description: Three still beverages were prepared: • A: Tap water with sucrose (7 brix) and 1.5 g/l of citric acid+lemon flavour • B: Tap water with sucrose (6.2 brix) and 1.5 g/l of citric acid+lemon flavour • C: Tap water with sucrose (6.2 brix)+lemon flavour+N-gluconyl ethanolamine 30 ppm (as prepared in Example 2)
The beverages were tasted by a professional panel.

[6] = Professional panel tasting of standard chicken soup (Example 8); details: 7 ppm, versus soup without
Description: A standard chicken soup was prepared. The quantity was split in two and to one half 7 ppm of N-gluconyl ethanolamine, as prepared in example 2, was added. The soups were tasted by a professional panel.

[7] = Professional panel tasting of sweet strawberry milk samples of different fat content (Example 10); details: for taste description versus same milk without the substance: 6% sucrose, strawberry flavour, 10 ppm
Description: Six sweet milk samples, containing 6% sucrose, flavoured with a strawberry flavour were prepared:
1. Zero fat containing milk drink
2. Zero fat containing milk drink+10 ppm gluconyl ethanolamine (as prepared in example 2)
4. 1.5% fat milk+10 ppm gluconyl ethanolamine (as prepared in example 2)
6. Full fat milk+10 ppm gluconyl ethanolamine (as prepared in example 2)
(§2) All samples were tasted by a professional panel. There was general agreement about the differences in taste between the samples.

[8] = Professional panel tasting of instant vegetable soup of different fat content (Example 11)
Description: Four samples of standard instant vegetable soup were prepared:
1. Soup containing 2% fat
2. Soup containing 2% fat+7 ppm gluconyl ethanolamine (as prepared in example 2)
3. Soup containing 4% fat
4. Soup containing 4% fat+7 ppm gluconyl ethanolamine (as prepared in example 2)
5. Soup containing 6% fat
6. Soup containing 6% fat+7 ppm gluconyl ethanolamine (as prepared in example 2)
as §2

[9] = Professional panel evaluation of cigarettes with tobacco casings (Example 12); details: casing B (2 g per 100 g casing mixture, 1 g/kg tobacco) versus casing A without
Description: The following mixtures were used as casings to improve the tobacco taste and improvement of the body of the smoke:
dosage of this mixture is 1 g/kg tobacco
Cigarettes were prepared from both types of tobacco, which were evaluated by a professional panel.

[10] = Professional panel tasting of salted potato chips (Example 13); details: potato chips with salt (0.7%) and 100 ppm; reference chips: salty, slightly rancid, oily-greasy and cardboard-like
Text: One sample of potato chips was seasoned with salt (0.7%).
Another sample of potato chips was seasoned with salt (0.7%) and flavoured with 100 ppm
N-gluconyl ethanolamine (as prepared in example 2).
The chips were tasted by a professional panel.
The reference chips were described as salty, slightly rancid, oily-greasy and cardboard-like.

[11] = Professional panel tasting of ketchup (Example 14); details: ketchup pH 3.5, 20 ppm; base: strongly acidic, acetic acid-like, flat tomato profile
Description: Ketchup was prepared using 506 g of water, 150 g of tomato puree (28-30 Brix), 30 g of modified starch (Colflo 67 ex National Starch), 22 g of salt, 2 g of stabilizer Deltagel CE 1364) and 115 g of vinegar (12% acetic acid in water), by first mixing the dry ingredients, subsequently adding water and stirring until a homogeneous paste was obtained. Tomato puree and vinegar were than added and the mixture was stirred again and heated to a temperature of 95° C. for 1 minute. The mixture was filled off hot and allowed to cool down.
The pH was determined to be 3.5.
Part of the ketchup was mixed with 20 ppm N-gluconyl ethanolamine (as prepared in example 2).
The two ketchups were tasted and compared by a professional panel.
The ketchup base was described as strongly acidic, acetic acid-like, with a flat tomato profile.

[12] = Professional panel tasting of vinaigrette (Example 15); details: 30 ppm, original: strongly acidic, acetic acid-like, thin, peaky
Description: A vinaigrette was prepared using 815.8 g of water, 100 g of sunflower oil, 12 g of salt, 30 g of sugar, 45 g of vinegar (12% acetic acid), 4 g of xanthan gum and 0.2 g of turmeric powder by mixing all ingredients intensively to obtain a homogeneous emulsion.
To a part of the vinaigrette 30 ppm of N-gluconyl ethanolamine (as prepared in example 2) was added.
Both vinaigrettes were tasted by a professional panel.
The original vinaigrette was described as strongly acidic, acetic acid-like, thin, peaky.

For `O=C(NCCOP(=O)(O)O)[C@H](O)[C@@H](O)[C@H](O)[C@H](O)CO` [N-gluconyl ethanolamine phosphate], the perceived saltiness ([1]; product C (3.5 g salt, 3.5 g Example 3 product per 100 g) versus product A (control, 7 g salt)) was “comparable to that of product A”, the panel preference ([1]; product C: tomato soup powder, 50% reduced salt, 3.5 g of Example 3 product per 100 g, 10 g in 100 ml hot water, versus product B (maltodextrin instead)) was “clearly preferred over product B” and the taste description ([1]; product C: tomato soup, 50% reduced salt, 3.5 g Example 3 product per 100 g powder) was ““more taste”, “more impact”, “more umami”, “more kokumi” and “salivating””.
In the case of `O=C(NCCO)[C@H](O)[C@@H](O)[C@H](O)[C@H](O)CO` [N-gluconyl ethanolamine], the taste description ([2]; sample B: Yoghurt 0% fat+strawberry flavour+sucralose (25%) 300 ppm+10 ppm, reference A without: sweet, bitter, metallic, aftertaste) is reported as “fuller more round and natural taste, more sugar sweetness, significantly less bitter metallic aftertaste”, the taste description ([2]; sample D: Yoghurt 0% fat+strawberry flavour+4% sugar+10 ppm, reference C without: tart, acidic) is reported as “fuller more round and natural taste, more intense sweet” and the taste description [3] is reported as “much fuller, more fatty, more round and natural taste, more intense sweet”. The taste description [4] was “fuller, more round and natural taste, enhanced sweetness and creaminess”, the taste description [5] was “fuller, more round and natural taste, more intense sweet taste than B” and the taste description [6] was “more tasteful, more complete, more body, more fatty”. For the same compound, the “taste comparison with higher-fat milk without the substance” value ([7]; sample 2 (zero fat+10 ppm) versus sample 3 (1.5% fat milk)) was “quite similar and the main difference was that sample 2 and 4 were slightly more sweet”, the “taste description versus same milk without the substance” value ([7]; sample 2: zero fat milk drink, versus sample 1) was “fuller, more round natural taste, more creamy and more sweet” and the “taste comparison with higher-fat milk without the substance” value ([7]; sample 4 (1.5% fat+10 ppm) versus sample 5 (full fat milk)) was “quite similar and the main difference was that sample 2 and 4 were slightly more sweet”. The “taste description versus same milk without the substance” value ([7]; sample 4: 1.5% fat milk, versus sample 3) was “fuller, more round natural taste, more creamy and more sweet”, the “taste description versus same milk without the substance” value ([7]; sample 6: full fat milk, versus sample 5) was “fuller, more round natural taste, more creamy and more sweet” and the “taste comparison with higher-fat soup without the substance” value ([8]; sample 2 (2% fat+7 ppm) versus sample 3 (4% fat)) was “quite similar and the main difference was that sample 2 and 4 tasted slightly more sweet”. The “taste description versus same soup without the substance” value ([8]; sample 2: vegetable soup 2% fat+7 ppm, versus sample 1) was “more fatty, more natural, more round and more sweet”, the “taste comparison with higher-fat soup without the substance” value ([8]; sample 4 (4% fat+7 ppm) versus sample 5 (6% fat)) was “quite similar and the main difference was that sample 2 and 4 tasted slightly more sweet” and the “taste description versus same soup without the substance” value ([8]; sample 4: vegetable soup 4% fat+7 ppm, versus sample 3) was “more fatty, more natural, more round and more sweet”. The “taste description versus same soup without the substance” value ([8]; sample 6: vegetable soup 6% fat+7 ppm, versus sample 5) was “more fatty, more natural, more round and more sweet”, the “smoke evaluation of cigarettes” value [9] was “significantly more “body” in the smoke and significantly more “expanding” tobacco smoke” and the taste description [10] was “salty, exhibiting more fatty fullness, and masking of undesired notes of the reference chips”. For the same compound, the taste description [11] was “mildly acidic, less acetic acid-like, exhibiting more sun-ripened tomato character, more fullness” and the taste description [12] was “acidic, more rounded, more full, more fat impression, more smooth”.
